What was measured:
[1] = molecular target: ErbB2 with Exon 20 YVMA insertion (HER2-YVMA) (Homo sapiens (Human), UniProt P04626, INS775YVMA); test: Cellular Phosphorylation Assay, Assay 4 (constitutive ErbB2 phosphorylation, NIH 3T3 cells); format: cell-based
EGFR wild type (EGFR WT) = EGFR wild type (EGFR WT) (Homo sapiens (Human), UniProt P00533); test: Cellular Phosphorylation Assay, Assay 5 (EGF-stimulated EGFR phosphorylation, NIH 3T3 cells); format: cell-based
MDR1 (P-gp) = MDR1 (P-gp) (Homo sapiens (Human), UniProt P08183); test: in vitro; settings: pig, LLC-PK1
ErbB2 WT = ErbB2 WT (Homo sapiens (Human), UniProt P04626); test: ErbB Enzyme Assay (HTRF KinEASE-TK), Assay 2; format: biochemical
EGFR = EGFR (Homo sapiens (Human), UniProt P00533); test: ErbB Enzyme Assay (HTRF KinEASE-TK), Assay 3; format: biochemical
BCRP = BCRP (Homo sapiens (Human), UniProt Q9UNQ0); test: BCRP MDCKII efflux assay (Assay 7); format: in vitro ADME; settings: dog; efflux ratio Papp(B-A)/Papp(A-B), BCRP MDCKII cells; read-out: Assay 7 Pe Ratio
Protocol: Assay conditions included with and without the BCRP-specific inhibitor, KO143, at a concentration of 0.3 μM to ascertain the contribution of BCRP to the efflux value of the test compound.
Final organic concentration in the assay was 1%.

[2] = EGF-stimulated EGFR WT phosphorylation
[3] = cellular ErbB2 YVMA phosphorylation
[4] = cellular EGFR WT phosphorylation, EGF-stimulated

Sequence of ErbB2 with Exon 20 YVMA insertion (HER2-YVMA) (P04626 other isoform, or with tags, fused parts or gaps ins YVMA behind 775): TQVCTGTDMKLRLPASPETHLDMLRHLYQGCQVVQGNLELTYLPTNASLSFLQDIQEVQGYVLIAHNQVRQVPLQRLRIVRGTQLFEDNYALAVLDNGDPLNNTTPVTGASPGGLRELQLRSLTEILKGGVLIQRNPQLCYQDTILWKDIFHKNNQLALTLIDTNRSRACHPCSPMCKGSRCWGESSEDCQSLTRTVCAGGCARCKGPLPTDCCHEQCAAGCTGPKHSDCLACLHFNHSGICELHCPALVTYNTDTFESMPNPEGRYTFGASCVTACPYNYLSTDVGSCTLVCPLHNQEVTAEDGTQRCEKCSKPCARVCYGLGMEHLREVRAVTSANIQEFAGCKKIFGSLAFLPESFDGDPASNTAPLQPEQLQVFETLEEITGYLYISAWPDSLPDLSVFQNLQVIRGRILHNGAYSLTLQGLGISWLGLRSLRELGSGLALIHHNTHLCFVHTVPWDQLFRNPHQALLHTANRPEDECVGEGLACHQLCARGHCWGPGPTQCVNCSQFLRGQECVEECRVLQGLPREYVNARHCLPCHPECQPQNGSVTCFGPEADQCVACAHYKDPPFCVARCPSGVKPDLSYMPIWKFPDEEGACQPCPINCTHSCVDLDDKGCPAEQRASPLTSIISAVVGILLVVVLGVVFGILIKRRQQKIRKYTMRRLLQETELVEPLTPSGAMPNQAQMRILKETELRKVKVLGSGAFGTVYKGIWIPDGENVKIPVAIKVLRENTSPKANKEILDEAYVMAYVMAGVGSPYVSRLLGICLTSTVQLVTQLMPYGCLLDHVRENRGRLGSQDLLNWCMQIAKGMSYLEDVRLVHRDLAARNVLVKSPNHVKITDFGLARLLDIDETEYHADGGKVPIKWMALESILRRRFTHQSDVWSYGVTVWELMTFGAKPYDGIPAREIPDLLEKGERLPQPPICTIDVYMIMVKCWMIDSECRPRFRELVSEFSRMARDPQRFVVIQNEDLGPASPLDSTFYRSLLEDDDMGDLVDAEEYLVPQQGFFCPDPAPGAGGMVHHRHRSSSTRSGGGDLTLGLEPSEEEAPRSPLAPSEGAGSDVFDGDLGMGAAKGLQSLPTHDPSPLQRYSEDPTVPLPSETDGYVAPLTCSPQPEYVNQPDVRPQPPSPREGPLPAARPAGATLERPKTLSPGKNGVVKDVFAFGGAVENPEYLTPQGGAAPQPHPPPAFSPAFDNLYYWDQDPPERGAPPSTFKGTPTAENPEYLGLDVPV
Sequence of EGFR wild type (EGFR WT) (P00533 25-1210): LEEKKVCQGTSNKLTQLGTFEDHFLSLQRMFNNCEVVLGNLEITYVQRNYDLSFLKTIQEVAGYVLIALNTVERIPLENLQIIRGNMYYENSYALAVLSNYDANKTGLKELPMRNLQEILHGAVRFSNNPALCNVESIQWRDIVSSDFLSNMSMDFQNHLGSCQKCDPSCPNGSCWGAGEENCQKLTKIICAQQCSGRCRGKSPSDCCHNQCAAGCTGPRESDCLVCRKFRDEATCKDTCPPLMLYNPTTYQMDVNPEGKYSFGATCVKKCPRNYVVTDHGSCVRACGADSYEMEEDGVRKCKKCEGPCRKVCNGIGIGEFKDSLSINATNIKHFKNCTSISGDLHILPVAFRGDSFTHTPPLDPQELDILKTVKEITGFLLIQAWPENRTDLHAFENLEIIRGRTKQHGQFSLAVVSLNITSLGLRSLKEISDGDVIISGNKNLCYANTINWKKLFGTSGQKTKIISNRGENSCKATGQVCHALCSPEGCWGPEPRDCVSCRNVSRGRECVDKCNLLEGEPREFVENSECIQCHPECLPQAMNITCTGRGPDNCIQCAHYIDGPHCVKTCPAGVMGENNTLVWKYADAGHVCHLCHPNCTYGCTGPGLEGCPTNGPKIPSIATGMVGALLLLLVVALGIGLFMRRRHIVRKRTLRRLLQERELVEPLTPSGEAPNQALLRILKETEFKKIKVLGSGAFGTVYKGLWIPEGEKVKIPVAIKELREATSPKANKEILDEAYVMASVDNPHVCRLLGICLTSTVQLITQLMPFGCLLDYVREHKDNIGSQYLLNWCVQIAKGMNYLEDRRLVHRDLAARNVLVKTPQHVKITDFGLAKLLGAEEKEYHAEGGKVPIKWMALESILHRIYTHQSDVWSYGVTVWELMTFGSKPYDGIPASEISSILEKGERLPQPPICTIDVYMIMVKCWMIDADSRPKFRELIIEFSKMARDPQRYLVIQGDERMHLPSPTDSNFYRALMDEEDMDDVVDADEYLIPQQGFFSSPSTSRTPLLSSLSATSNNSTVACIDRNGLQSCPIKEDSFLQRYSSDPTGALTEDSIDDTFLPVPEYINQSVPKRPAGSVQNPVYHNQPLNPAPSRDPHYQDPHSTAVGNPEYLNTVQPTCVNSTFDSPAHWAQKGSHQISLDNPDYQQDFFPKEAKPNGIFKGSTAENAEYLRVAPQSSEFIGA
Sequence of EGFR (P00533 25-1210): as above
Sequence of ErbB2 WT (P04626 23-1255): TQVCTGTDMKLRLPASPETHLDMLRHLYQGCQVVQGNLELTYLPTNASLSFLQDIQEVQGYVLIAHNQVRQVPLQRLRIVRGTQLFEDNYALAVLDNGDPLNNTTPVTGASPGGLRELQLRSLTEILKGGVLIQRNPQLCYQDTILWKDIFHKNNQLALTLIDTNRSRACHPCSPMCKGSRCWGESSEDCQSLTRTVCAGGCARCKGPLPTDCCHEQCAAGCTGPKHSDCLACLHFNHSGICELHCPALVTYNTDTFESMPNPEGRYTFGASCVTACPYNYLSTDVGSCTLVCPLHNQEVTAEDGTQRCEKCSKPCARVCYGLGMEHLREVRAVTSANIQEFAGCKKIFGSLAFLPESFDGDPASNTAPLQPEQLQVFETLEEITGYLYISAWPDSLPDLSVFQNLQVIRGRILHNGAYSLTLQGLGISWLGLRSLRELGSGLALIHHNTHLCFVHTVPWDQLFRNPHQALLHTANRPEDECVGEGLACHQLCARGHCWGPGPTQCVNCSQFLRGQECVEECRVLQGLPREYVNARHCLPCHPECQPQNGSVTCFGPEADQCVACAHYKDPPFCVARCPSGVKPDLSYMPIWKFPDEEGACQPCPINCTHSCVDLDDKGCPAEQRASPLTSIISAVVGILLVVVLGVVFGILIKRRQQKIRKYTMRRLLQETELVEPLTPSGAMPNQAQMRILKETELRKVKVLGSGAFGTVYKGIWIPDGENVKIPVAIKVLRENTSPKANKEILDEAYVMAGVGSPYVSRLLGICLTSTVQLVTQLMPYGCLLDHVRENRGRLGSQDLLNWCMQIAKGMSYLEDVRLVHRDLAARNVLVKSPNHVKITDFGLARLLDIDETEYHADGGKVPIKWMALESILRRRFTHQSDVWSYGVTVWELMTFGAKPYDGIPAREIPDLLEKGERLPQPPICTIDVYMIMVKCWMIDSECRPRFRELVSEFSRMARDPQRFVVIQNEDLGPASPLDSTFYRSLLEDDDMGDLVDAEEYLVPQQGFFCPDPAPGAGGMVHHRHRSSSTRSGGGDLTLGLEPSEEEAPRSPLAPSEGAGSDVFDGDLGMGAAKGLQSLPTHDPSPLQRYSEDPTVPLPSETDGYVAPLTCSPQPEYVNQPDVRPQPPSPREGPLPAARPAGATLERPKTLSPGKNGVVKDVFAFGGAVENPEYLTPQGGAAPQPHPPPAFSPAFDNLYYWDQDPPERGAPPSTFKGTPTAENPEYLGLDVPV

| IC50 ([1]; ErbB2 YVMA phosphorylation) [nM] | IC50 (EGFR wild type (EGFR WT); [2]) [nM] | efflux ratio at 2 h, 1 µM (MDR1 (P-gp)) | IC50 (ErbB2 WT; ErbB2 WT enzyme) [nM] | IC50 (EGFR; EGFR enzyme) [nM] | IC50 [1, 3] [nM] | IC50 (EGFR wild type (EGFR WT); [4]) [nM] | efflux ratio at 2 h, 1 µM (BCRP) | IC50 (ErbB2 WT; ErbB2 WT enzyme assay) [nM] | IC50 (EGFR; EGFR enzyme assay) [nM] | SMILES |
| --- | --- | --- | --- | --- | --- | --- | --- | --- | --- | --- |
| 34.7 | ≥ 5000 | 34.5 | 395 | ≥ 10000 | – | – | – | – | – | C=CC(=O)N1CCC(Oc2ccc3ncnc(Nc4ccc(Oc5cc6nn(C)cc6cn5)c(C)c4)c3n2)CC1 [Example 52, 1-(4-((4-((3-methyl-4-((2-methyl-2H-pyrazolo[4,3-c]pyridin-6-yl)oxy)phenyl)amino)pyrido[3,2-d]pyrimidin-6-yl)oxy)piperidin-1-yl)prop-2-en-1-one] |
| 131 | ≥ 5000 | 1.9 | 45.8 | 5530 | – | – | – | – | – | C=CC(=O)N1CCC(N(C)c2ccc3ncnc(Nc4ccc(Oc5ccn6ncnc6c5)c(C)c4F)c3n2)CC1 [Example 32, 1-(4-((4-((4-([1,2,4]triazolo[1,5-a]pyridin-7-yloxy)-2-fluoro-3-methylphenyl)amino)pyrido[3,2-d]pyrimidin-6-yl)(methyl)amino)piperidin-1-yl)prop-2-en-1-one] |
| – | – | – | – | – | 10.5 | 778 | 4.4 | 11 | 1340 | C=CC(=O)N1[C@H](C)CN(c2ccc3ncnc(Nc4ccc(Oc5ccn6ncnc6c5)c(Cl)c4F)c3n2)C[C@@H]1C [Example 288] |
| 9.5 | ≥ 5000 | – | 33.2 | 9430 | – | – | 17.4 | – | – | C=CC(=O)N1CCN(c2ccc3ncnc(Nc4cc(Cl)c(Oc5ccn6ncnc6c5)cc4F)c3n2)CC1 [Example 81, 1-(4-(4-((4-([1,2,4]triazolo[1,5-a]pyridin-7-yloxy)-5-chloro-2-fluorophenyl)amino)pyrido[3,2-d]pyrimidin-6-yl)piperazin-1-yl)prop-2-en-1-one] |
| – | – | – | – | – | 2.9 | 83.2 | 8.5 | 10 | 237 | C=CC(=O)N1CCN(c2ccc3ncnc(Nc4ccc(Oc5ccn6ncnc6c5)c(C)c4F)c3n2)C[C@H]1COC [Example 358] |
| 4.6 | 1320 | – | 2.9 | ≥ 10000 | – | – | 10.9 | – | – | C=CC(=O)N1CCN(c2ccc3ncnc(Nc4ccc(Oc5ccc6c(c5)ncn6C)c(C)c4)c3n2)CC1(C)C [Example 103, 1-(2,2-dimethyl-4-(4-((3-methyl-4-((1-methyl-1H-benzo[d]imidazol-5-yl)oxy)phenyl)amino)pyrido[3,2-d]pyrimidin-6-yl)piperazin-1-yl)prop-2-en-1-one] |
| – | – | – | – | – | 20.2 | 3090 | 6.8 | 59.2 | 1930 | C=CC(=O)N1C[C@H](c2ccc3ncnc(Nc4ccc(Oc5ccn6ncnc6c5)c(C)c4F)c3n2)C[C@H]1COC (mixture of isomers) [Example 306] |
| 8.4 | ≥ 5000 | – | 42 | 7270 | – | – | 15.8 | – | – | C=CC(=O)N1CCC(c2ccc3ncnc(Nc4ccc(Oc5ccc6c(c5)ncn6C)c(C)c4)c3n2)C1 (racemic) [Example 120, rac-(R)-1-(3-(4-((3-methyl-4-((1-methyl-1H-benzo[d]imidazol-5-yl)oxy)phenyl)amino)pyrido[3,2-d]pyrimidin-6-yl)pyrrolidin-1-yl)prop-2-en-1-one] |
| 9.6 | ≥ 5000 | – | 81.5 | 5580 | – | – | 6.3 | – | – | C=CC(=O)N1C[C@H]2C[C@@H]1CN2c1ccc2ncnc(Nc3ccc(Oc4ccc5c(c4)ncn5C)c(C)c3F)c2n1 [Example 83, 1-((1R,4R)-5-(4-((2-fluoro-3-methyl-4-((1-methyl-1H-benzo[d]imidazol-5-yl)oxy)phenyl)amino)pyrido[3,2-d]pyrimidin-6-yl)-2,5-diazabicyclo[2.2.1]heptan-2-yl)prop-2-en-1-one] |
| 13.7 | ≥ 5000 | – | 65.2 | ≥ 10000 | – | – | 3.8 | – | – | C=CC(=O)N1CCN(c2ccc3ncnc(Nc4ccc(Oc5ccc6c(c5)ncn6C)c(C)c4F)c3n2)CC1(C)C [Example 75, 1-(4-(4-((2-fluoro-3-methyl-4-((1-methyl-1H-benzo[d]imidazol-5-yl)oxy)phenyl)amino)pyrido[3,2-d]pyrimidin-6-yl)-2,2-dimethylpiperazin-1-yl)prop-2-en-1-one] |
| – | – | – | – | – | 33.8 | ≥ 5000 | 11.8 | 156 | 4780 | C=CC(=O)N1C[C@@H]2CC(c3ccc4ncnc(Nc5ccc(Oc6ccn7ncnc7c6)c(C)c5F)c4n3)C[C@H]1C2 (some centres unmarked) [Example 268] |
| 22.1 | ≥ 5000 | – | 132 | ≥ 10000 | – | – | 2.1 | – | – | C=CC(=O)N1C[C@H](c2ccc3ncnc(Nc4cc(C)c(Oc5ccc6c(c5)ncn6C)cc4F)c3n2)C[C@H]1C [Example 192, 1-((2R,4R)-4-(4-((2-fluoro-5-methyl-4-((1-methyl-1H-benzo[d]imidazol-5-yl)oxy)phenyl)amino)pyrido[3,2-d]pyrimidin-6-yl)-2-methylpyrrolidin-1-yl)prop-2-en-1-one] |
| – | – | – | – | – | 18.6 | 4910 | 9.3 | 148 | 9730 | C=CC(=O)N1CCN(c2ccc3ncnc(Nc4ccc(Oc5cnc6c(c5)ncn6C)c(C)c4F)c3n2)C[C@@H]1C [Example 437] |
| – | – | – | – | – | 53.7 | ≥ 5000 | 26 | 22.4 | 2870 | C=CC(=O)N1CC2(CCN2c2ccc3ncnc(Nc4ccc(Oc5ccn6ncnc6c5)c(C)c4F)c3n2)C1 [Example 289] |
| – | – | – | – | – | 29.8 | 2050 | 12.8 | 47.3 | 1380 | C=CC(=O)N1C[C@@H]2CN(c3ccc4ncnc(Nc5ccc(Oc6ccn7ncnc7c6)c(C)c5F)c4n3)C[C@@H]21 [Example 318] |
| 5 | 1350 | – | 11.9 | 680 | – | – | 31.6 | – | – | C=CC(=O)N1CCN(c2ccc3ncnc(Nc4ccc(Oc5ccc6c(c5)ncn6C)c(C)c4)c3n2)CC1 [Example 105, 1-(4-(4-((3-methyl-4-((1-methyl-1H-benzo[d]imidazol-5-yl)oxy)phenyl)amino)pyrido[3,2-d]pyrimidin-6-yl)piperazin-1-yl)prop-2-en-1-one] |
| – | – | – | – | – | 11.6 | 1670 | 13.8 | 16.9 | 757 | C=CC(=O)N1C[C@H]2C[C@@H]1CN(c1ccc3ncnc(Nc4ccc(Oc5ccn6ncnc6c5)c(Cl)c4F)c3n1)C2 [Example 304] |
| 12 | 493 | – | 20.4 | 452 | – | – | 15 | – | – | C=CC(=O)N1CCC(Sc2nc3c(Nc4ccc(Oc5ccc6c(c5)ncn6C)c(C)c4)ncnc3cc2OC)CC1 [Example 159, 1-(4-((7-methoxy-4-((3-methyl-4-((1-methyl-1H-benzo[d]imidazol-5-yl)oxy)phenyl)amino)pyrido[3,2-d]pyrimidin-6-yl)thio)piperidin-1-yl)prop-2-en-1-one] |
| – | – | – | – | – | 19 | 2020 | 4 | 43.6 | 1030 | C=CC(=O)N1C[C@@H]2C[C@H]1C[C@H]2c1ccc2ncnc(Nc3cc(C)c(Oc4ccc5c(c4)ncn5C)cc3F)c2n1 [Example 375] |
| 18.9 | 2680 | – | 51.1 | 3360 | – | – | 11 | – | – | C=CC(=O)N1CCCN(c2ccc3ncnc(Nc4ccc(Oc5ccn6ncnc6c5)c(Cl)c4F)c3n2)CC1 [Example 98, 1-(4-(4-((4-([1,2,4]triazolo[1,5-a]pyridin-7-yloxy)-3-chloro-2-fluorophenyl)amino)pyrido[3,2-d]pyrimidin-6-yl)-1,4-diazepan-1-yl)prop-2-en-1-one] |

| SMILES | IC50 ([1]; ErbB2 YVMA phosphorylation) [nM] | IC50 (EGFR wild type (EGFR WT); [2]) [nM] | efflux ratio at 2 h, 1 µM (MDR1 (P-gp)) | IC50 (ErbB2 WT; ErbB2 WT enzyme) [nM] | IC50 (EGFR; EGFR enzyme) [nM] | IC50 [1, 3] [nM] | IC50 (EGFR wild type (EGFR WT); [4]) [nM] | efflux ratio at 2 h, 1 µM (BCRP) | IC50 (ErbB2 WT; ErbB2 WT enzyme assay) [nM] | IC50 (EGFR; EGFR enzyme assay) [nM] |
| --- | --- | --- | --- | --- | --- | --- | --- | --- | --- | --- |
| C=CC(=O)N1C[C@@H]2CC[C@H]1CN(c1ccc3ncnc(Nc4ccc(Oc5ccn6ncnc6c5)c(C)c4F)c3n1)C2 (racemic) [Example 327] | – | – | – | – | – | 9.3 | 3500 | 5.4 | 12.8 | 1160 |
| C=CC(=O)N1C2CCC1CN(c1ccc3ncnc(Nc4ccc(Oc5ccn6ncnc6c5)c(C)c4F)c3n1)C2 [Example 444] | – | – | – | – | – | 5.9 | 352 | 9 | 12 | 379 |
| C=CC(=O)N1C2CCC1CN(c1ccc3ncnc(Nc4cc(Cl)c(Oc5ccn6ncnc6c5)cc4F)c3n1)C2 [Example 434] | – | – | – | – | – | 9.8 | 3490 | 13.6 | 20.8 | 1230 |
| C=CC(=O)N1C2CC1CN(c1ccc3ncnc(Nc4cc(C)c(Oc5ccc6c(c5)ncn6C)cc4F)c3n1)C2 [Example 48, 1-(3-(4-((2-fluoro-5-methyl-4-((1-methyl-1H-benzo[d]imidazol-5-yl)oxy)phenyl)amino)pyrido[3,2-d]pyrimidin-6-yl)-3,6-diazabicyclo[3.1.1]heptan-6-yl)prop-2-en-1-one] | 16.6 | ≥ 5000 | – | 264 | ≥ 10000 | – | – | 10.2 | – | – |
| C=CC(=O)N1CC2CC(C1)N2c1ccc2ncnc(Nc3ccc(Oc4ccc5c(c4)ncn5C)c(C)c3F)c2n1 [Example 335] | – | – | – | – | – | 15.4 | ≥ 5000 | 3 | 164 | ≥ 10000 |
